# Reference: patent US9234006B2, “Compounds” (Novacta Biosystems Limited, priority 2011, dated 2016)
# Where a SMILES comes first, the peptide text is derived from it. Bridges are numbered along the chain shown (N, C = ends). [ ]: non-standard residue; d: D form. The star is where a group is joined. ξ: configuration not given here. Butanoyl(3ξ-OH) = CC(O)CC(=O)*; Thr(3ξ) = CC(O)[C@H](N)C(=O)O; Dab = NCC[C@H](N)C(=O)O
# Tests used:
# HK-2 cell line = details: 24 h incubation, resazurin reduction; Table 7A; footnote c: solubility issues noted at top concentration
# Protocol: The renal cell toxicity of the compounds was assessed in an in vitro assay using the HK-2 cell line, an immortalized proximal tubule cell line derived from a normal human kidney. The endpoint to describe the toxicity of the compounds was the reduction of resazurin correlating with the metabolic activity of the cells.
# Cells were cultured in 150 cm^2 flasks in 25 mL supplemented KSF (with 5 ng/mL EGF and 50 μg/mL BPE). Cells were maintained at 70% confluence with a maximum of 25 passages. Day 1: Media was removed and cells were washed with 10 ml DPBS. […] After 1 to 2 minutes incubation, 14 ml media was added to the flask to inactivate the trypsin. The cell suspension was transferred to a centrifuge tube and the cells pelleted at 1000 rpm for 6 minutes. The cell pellet was then resuspended in fresh media supplemented with EGF and BPE. […] 7500 cells were dispensed in each well in a volume of 160 μl and incubated at 37° C. for 24 h.
# Day 2: Test compounds were prepared directly into the media. […] The microtiter plates were removed from the incubator and the media replaced with 100 μl of the dilutions of the compound solution. Every set of concentration was done in triplicate, and positive and negative controls were added to each plate. The plates were then incubated for 24 h at 37° C. with 5% CO2 in a humidified atmosphere.
# Day 3: The reagent containing the resazurin (CellTiter-Blue, Promega) was diluted in PBS (1:4) and added at 20% (v/v) to each well. The plates were then incubated at 37° C. for 2 h before the fluorescent reduction product was detected.
# Media only background values were subtracted before the data was analysed using GraphPad Prism. Compound concentration values were plotted as log values to enable a dose-response curve to be fitted and IC50 values determined (Table 7).
# The renal cell toxicity of the additional example compounds was assessed in an in vitro assay using the HK-2 cell as described in the example above.
# A. baumannii ATCC19606 = assay: MIC susceptibility testing, broth microdilution in CaMHB; type: cell-based, Acinetobacter baumannii; details: Table 4A, different batches of cation-adjusted Muller-Hinton broth
# Summary of the method: (§1)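 Colonies from fresh MHA grown overnight in CaMHB at 37° C, 250 rpm for 18-20 hours, diluted 100-fold and regrown to OD600 0.2-0.3 […]. Actively growing culture diluted 100-fold in fresh medium as inoculum; assays run in duplicate.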
# P. aeruginosa ATCC27853 = assay: as above; type: cell-based, Pseudomonas aeruginosa; details: Table 4A, different batches of cation-adjusted Muller-Hinton broth
# Summary of the method: as §1
# K. pneumoniae ATCC 4352 = assay: as above; type: cell-based, Klebsiella pneumoniae; details: K. pneumoniae ATCC4352; Table 4A, different batches of cation-adjusted Muller-Hinton broth
# Summary of the method: as §1
# E. coli ATCC25922 = assay: as above; type: cell-based, Escherichia coli; details: Table 4A, different batches of cation-adjusted Muller-Hinton broth
# Summary of the method: as §1
# [1] = system: K. pneumoniae clinical isolates and resistant strains; type: cell-based; details: K. pneumoniae
# Protocol: (§2) The in vitro antibacterial activities of the compounds of examples 2 and 6 were evaluated against a panel of […] Gram-negative bacterial isolates alongside Colistin. The panel consisted of 100 clinical isolates of each of A. baumannii, E. coli, K. pneumoniae and P. aeruginosa. The panel represented the current epidemiology in Europe and the USA and included a number of relevant strains with defined resistant phenotypes to current clinically-used antibacterial agents. These resistant strains included 20 A. baumannii, 22 E. coli, 25 K. pneumoniae and 20 P. aeruginosa strains.
# (§3) All compounds were tested up to a maximum concentration of 64 μg/mL with the exception of colistin, which was evaluated up to a maximum concentration of 16 μg/mL.
# [2] = system: E. coli clinical isolates and resistant strains; type: cell-based; details: E. coli
# Protocol: as §2, §3
# [3] = system: P. aeruginosa clinical isolates and resistant strains; type: cell-based; details: P. aeruginosa
# Protocol: as §2, §3
# [4] = system: A. baumannii clinical isolates and resistant strains; type: cell-based; details: A. baumannii
# Protocol: as §2, §3
# A. baumannii NCTC7844 = assay: MIC susceptibility testing, broth microdilution in CaMHB; type: cell-based, Acinetobacter baumannii; details: Table 4A, different batches of cation-adjusted Muller-Hinton broth
# Summary of the method: as §1
# A. baumannii ATCCBAA-747 = assay: as above; type: cell-based, Acinetobacter baumannii; details: Table 4A, different batches of cation-adjusted Muller-Hinton broth
# Summary of the method: as §1
# A. baumannii NCTC13423 = assay: as above; type: cell-based, Acinetobacter baumannii; details: Table 4A, different batches of cation-adjusted Muller-Hinton broth
# Summary of the method: as §1
# [5] = system: P. aeruginosa ATCCCRM-9027; assay: as above; type: cell-based, Pseudomonas aeruginosa; details: P. aeruginosa AATCCRM 9027; Table 4A, different batches of cation-adjusted Muller-Hinton broth
# Summary of the method: as §1
# P. aeruginosa ATCC10145 = assay: as above; type: cell-based, Pseudomonas aeruginosa; details: Table 4A, different batches of cation-adjusted Muller-Hinton broth
# Summary of the method: as §1
# P. aeruginosa ATCC 9721 = assay: as above; type: cell-based, Pseudomonas aeruginosa; details: P. aeruginosa ATCC9721; Table 4A, different batches of cation-adjusted Muller-Hinton broth
# Summary of the method: as §1
# [6] = system: Klebsiella pneumoniae ATCC10031; type: in vivo; details: neutropenic mice, thigh, K. pneumoniae ATCC10031, total daily dosage 10 mg/Kg; Table 5B
# Protocol: Groups of 5 female specific-pathogen-free CD-1 mice weighing 22±2 g were used. The animals were made neutropenic by intraperitoneal administration of cyclophosphamide on days −4 (150 mg/kg) and −1 (100 mg/kg). […] Examples 2, 4, 5, 6, 7, 8, 10, 11 and polymyxin B were prepared in Normal Saline at 2 mg/mL and the solution was adjusted to pH 6-7 by addition of 0.1M H2SO4 or 4.2% NaHCO3 as required. Twenty-four hours after infection, the mice were euthanized humanely. The muscle of the right thigh of each animal was harvested, homogenized, serially diluted and plated on Brain Heart Infusion agar+0.5% charcoal (w/v) for CFU determination. Decrease of the total CFU of right thigh as compared to control counts at 24 hrs post-infection was determined for each dose group. […] Using the same procedure as described above, the in vivo efficacy of three compounds of the invention (Examples 2,6, and 14) was evaluated in a mouse thigh infection model of Klebsiella pneumoniae ATCC10031, using Colistin (Polymyxin E) as comparator.
# K. pneumoniae NCTC7427 = assay: MIC susceptibility testing, broth microdilution in CaMHB; type: cell-based, Klebsiella pneumoniae; details: Table 4A, different batches of cation-adjusted Muller-Hinton broth
# Summary of the method: as §1
# K. pneumoniae NCTC8172 = assay: as above; type: cell-based, Klebsiella pneumoniae; details: Table 4A, different batches of cation-adjusted Muller-Hinton broth
# Summary of the method: as §1
# E. coli NCTC12900 = assay: as above; type: cell-based, Escherichia coli; details: Table 4A, different batches of cation-adjusted Muller-Hinton broth
# Summary of the method: as §1
# E. coli NCTC9001 = assay: as above; type: cell-based, Escherichia coli; details: Table 4A, different batches of cation-adjusted Muller-Hinton broth
# Summary of the method: as §1
# E. coli ATCC700928 = assay: as above; type: cell-based, Escherichia coli; details: Table 4A, different batches of cation-adjusted Muller-Hinton broth
# Summary of the method: as §1
compound,measurement,setting,value
"CC(C)C[C@@H]1NC(=O)[C@@H](Cc2ccccc2)NC(=O)[C@H](CCN)NC(=O)[C@@H](NC(=O)[C@H](CCN)NC(=O)[C@@H](NC(=O)CC(C)O)C(C)O)CCNC(=O)[C@H](C(C)O)NC(=O)[C@H](CCN)NC(=O)[C@H](CCN)NC1=O (stereo partly drawn) [Example 22, 3-(R,S)-3-Hydroxybutanoyl polymyxin B nonapeptide] ({Butanoyl(3ξ-OH)}-[Thr(3ξ)][Dab][Dab][Dab][dF]L[Dab][Dab][Thr(3ξ)]; lactam 3-C)",IC50 HK-2 cells,HK-2 cell line,500^c μg/mL
same,MIC,A. baumannii ATCC19606,>32 micrograms/mL
same,MIC,P. aeruginosa ATCC27853,0.5 micrograms/mL
same,MIC,K. pneumoniae ATCC 4352,8 micrograms/mL
same,MIC,E. coli ATCC25922,4 micrograms/mL
Colistin [reference compound],IC50 HK-2 cells,HK-2 cell line,28^a μg/mL
same,MIC50 Clinical isolates,[1]; clinical isolates,2 µg/mL
same,MIC90 Clinical isolates,[1]; clinical isolates,4 µg/mL
same,MIC Range Clinical isolates,[1]; clinical isolates,1 to 16 µg/mL
same,MIC50 Resistant strains,[1]; resistant strains,2 µg/mL
same,MIC90 Resistant strains,[1]; resistant strains,8 µg/mL
same,MIC50 Clinical isolates,[2]; clinical isolates,2 µg/mL
same,MIC90 Clinical isolates,[2]; clinical isolates,2 µg/mL
same,MIC Range Clinical isolates,[2]; clinical isolates,0.5 to 4 µg/mL
same,MIC50 Resistant strains,[2]; resistant strains,1 µg/mL
same,MIC90 Resistant strains,[2]; resistant strains,1 µg/mL
same,MIC Range Resistant strains,[2]; resistant strains,0.25 to 2 µg/mL
same,MIC50 Clinical isolates,[3]; clinical isolates,2 µg/mL
same,MIC90 Clinical isolates,[3]; clinical isolates,4 µg/mL
same,MIC Range Clinical isolates,[3]; clinical isolates,0.25 to 4 µg/mL
same,MIC50 Resistant strains,[3]; resistant strains,2 µg/mL
same,MIC90 Resistant strains,[3]; resistant strains,2 µg/mL
same,MIC Range Resistant strains,[3]; resistant strains,0.5 to 2 µg/mL
same,MIC50 Clinical isolates,[4]; clinical isolates,2 µg/mL
same,MIC90 Clinical isolates,[4]; clinical isolates,2 µg/mL
same,MIC Range Clinical isolates,[4]; clinical isolates,0.5 to 4 µg/mL
same,MIC50 Resistant strains,[4]; resistant strains,2 µg/mL
same,MIC90 Resistant strains,[4]; resistant strains,2 µg/mL
same,MIC Range Resistant strains,[4]; resistant strains,1 to 4 µg/mL
same,MIC,A. baumannii NCTC7844,0.125 micrograms/mL
same,MIC,A. baumannii ATCCBAA-747,0.25 micrograms/mL
same,MIC,A. baumannii NCTC13423,<0.06 micrograms/mL
same,MIC,P. aeruginosa ATCC27853,0.5 micrograms/mL
same,MIC,[5],0.5 micrograms/mL
same,MIC,P. aeruginosa ATCC10145,0.5 micrograms/mL
same,MIC,P. aeruginosa ATCC 9721,0.5 micrograms/mL
same,Mean log10 CFU reduction vs. control,[6],2.60 log10 CFU
same,MIC,K. pneumoniae NCTC7427,0.25 micrograms/mL
same,MIC,K. pneumoniae ATCC 4352,0.125 micrograms/mL
same,MIC,K. pneumoniae NCTC8172,0.5 micrograms/mL
same,MIC,E. coli NCTC12900,0.5 micrograms/mL
same,MIC,E. coli ATCC25922,1 micrograms/mL
same,MIC,E. coli NCTC9001,2 micrograms/mL
same,MIC,E. coli ATCC700928,0.25 micrograms/mL
